Like-named read-outs stand apart in the source and are kept apart here.
Tests used:
[1] = biological target: human muscarinic M3 receptor (Homo sapiens, UniProt P20309); assay: Alphascreen Surefire phospho-ERK1/2 functional assay, M3; settings: for Emax: CHO; for EC50: pEC50 M3, CHO cells stably expressing human M3; for EC50 / pEC50 M3: phospho-ERK1/2, * = variable results; for pEC50 M3 / % Emax cf. ACh, M3: CHO cells stably expressing human M3
[2] = biological target: T1, human muscarinic M4 receptor (Homo sapiens, UniProt P08173); assay: Alphascreen Surefire phospho-ERK1/2 functional assay, M4; assay type: cell-based; settings: for EC50 / pEC50 M4 / % Emax cf. ACh, M4: CHO cells stably expressing human M4; for EC50 / pEC50 M4: phospho-ERK1/2, * = variable results; for EC50: read-out: pEC50 M4 (converted); for Emax: CHO
T1 construct: expressed in transfected cells
T1 sequence (P08173 1-479): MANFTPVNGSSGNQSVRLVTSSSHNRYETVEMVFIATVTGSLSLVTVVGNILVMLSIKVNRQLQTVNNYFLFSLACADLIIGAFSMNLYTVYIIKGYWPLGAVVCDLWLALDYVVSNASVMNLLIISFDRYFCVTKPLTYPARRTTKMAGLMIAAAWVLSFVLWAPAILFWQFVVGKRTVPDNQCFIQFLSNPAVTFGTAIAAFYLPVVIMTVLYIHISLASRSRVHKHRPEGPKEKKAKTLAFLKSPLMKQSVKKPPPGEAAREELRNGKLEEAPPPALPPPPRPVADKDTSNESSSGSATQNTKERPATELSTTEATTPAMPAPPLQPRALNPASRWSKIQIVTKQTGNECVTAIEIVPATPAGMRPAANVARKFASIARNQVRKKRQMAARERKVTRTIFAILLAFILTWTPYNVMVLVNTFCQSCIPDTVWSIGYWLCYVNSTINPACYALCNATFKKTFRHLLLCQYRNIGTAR

[3] = tested on: scopolamine-induced amnesia; assay: Passive avoidance task, scopolamine-induced amnesia; assay type: in vivo
Experimental: Studies were carried out as described previously by Foley et al., (2004) Neuropsychopharmacology. In the passive avoidance task scopolamine administration (1 mg/kg, i.p.) at 6 hours following training rendered animals amnesic of the paradigm. A dose range of 3, 10, and 30 mg/kg (po) free base, administered 90 minutes prior to the training period via oral gavage, was examined.

[4] = biological target: T2, human muscarinic M2 receptor (Homo sapiens, UniProt P08172); assay: Alphascreen Surefire phospho-ERK1/2 functional assay, M2; settings: for Emax: CHO; for pEC50 M2 / % Emax cf. ACh, M2: CHO cells stably expressing human M2; for pEC50 M2: phospho-ERK1/2, * = variable results
T2 sequence (P08172 1-466): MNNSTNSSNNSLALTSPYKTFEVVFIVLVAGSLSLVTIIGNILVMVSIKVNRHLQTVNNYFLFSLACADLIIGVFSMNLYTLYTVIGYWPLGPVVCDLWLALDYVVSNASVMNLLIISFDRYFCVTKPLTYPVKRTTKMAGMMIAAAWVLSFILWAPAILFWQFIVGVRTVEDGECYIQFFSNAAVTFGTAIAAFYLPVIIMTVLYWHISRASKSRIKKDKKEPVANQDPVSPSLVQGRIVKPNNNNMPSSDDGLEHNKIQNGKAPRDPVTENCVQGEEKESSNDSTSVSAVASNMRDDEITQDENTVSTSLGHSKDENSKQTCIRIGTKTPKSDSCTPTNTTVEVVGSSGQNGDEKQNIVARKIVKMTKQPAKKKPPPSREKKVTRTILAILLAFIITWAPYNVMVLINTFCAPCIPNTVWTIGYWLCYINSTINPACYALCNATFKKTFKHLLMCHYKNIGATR

[5] = biological target: T3, human muscarinic M1 receptor (Homo sapiens, UniProt P11229); assay: Alphascreen Surefire phospho-ERK1/2 functional assay, M1; assay type: cell-based; settings: for EC50 / pEC50 M1 / % Emax cf. ACh, M1: CHO cells stably expressing human M1; for EC50 / pEC50 M1: phospho-ERK1/2, * = variable results; for EC50: read-out: pEC50 M1 (converted); for Emax: CHO
T3 sequence (P11229 1-460): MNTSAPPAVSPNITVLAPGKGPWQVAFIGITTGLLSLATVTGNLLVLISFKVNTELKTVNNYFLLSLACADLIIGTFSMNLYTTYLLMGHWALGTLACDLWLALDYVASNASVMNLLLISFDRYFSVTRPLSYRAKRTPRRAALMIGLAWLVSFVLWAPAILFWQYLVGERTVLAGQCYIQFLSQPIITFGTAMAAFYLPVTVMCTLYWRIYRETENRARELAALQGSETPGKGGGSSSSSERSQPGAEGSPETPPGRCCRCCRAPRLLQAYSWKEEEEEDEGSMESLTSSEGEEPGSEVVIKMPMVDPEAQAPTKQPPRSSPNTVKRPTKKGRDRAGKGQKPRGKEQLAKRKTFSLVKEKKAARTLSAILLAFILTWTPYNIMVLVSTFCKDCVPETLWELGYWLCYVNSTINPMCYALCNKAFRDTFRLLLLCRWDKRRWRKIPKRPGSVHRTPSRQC

human muscarinic M3 receptor, sequence (P20309 whole entry): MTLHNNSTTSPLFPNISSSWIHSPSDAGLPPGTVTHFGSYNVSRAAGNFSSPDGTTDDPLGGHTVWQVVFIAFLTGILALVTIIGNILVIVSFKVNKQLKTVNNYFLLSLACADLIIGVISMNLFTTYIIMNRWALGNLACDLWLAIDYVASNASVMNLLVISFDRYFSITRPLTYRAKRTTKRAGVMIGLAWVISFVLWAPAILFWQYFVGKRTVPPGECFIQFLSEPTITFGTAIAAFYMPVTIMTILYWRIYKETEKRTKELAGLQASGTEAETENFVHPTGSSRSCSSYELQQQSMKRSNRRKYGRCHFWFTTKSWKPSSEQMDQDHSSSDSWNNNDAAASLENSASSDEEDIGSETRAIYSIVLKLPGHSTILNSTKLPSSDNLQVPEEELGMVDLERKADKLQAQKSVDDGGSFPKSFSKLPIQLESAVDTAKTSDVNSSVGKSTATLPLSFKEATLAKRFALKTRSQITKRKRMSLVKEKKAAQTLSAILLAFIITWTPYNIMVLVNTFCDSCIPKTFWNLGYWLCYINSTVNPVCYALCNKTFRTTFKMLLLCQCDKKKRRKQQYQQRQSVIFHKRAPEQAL

| Compound | EC50 [1] [nM] | EC50 [2] [nM] | EC50 [5] [nM] | pEC50 M3 [1] | % Emax cf. ACh, M3 ([1]; relative to ACh) [%] | pEC50 M4 [2] | % Emax cf. ACh, M4 ([2]; relative to ACh) [%] | pEC50 M2 [4] | % Emax cf. ACh, M2 ([4]; relative to ACh) [%] | pEC50 M1 [5] | % Emax cf. ACh, M1 ([5]; relative to ACh) [%] | other results |
| --- | --- | --- | --- | --- | --- | --- | --- | --- | --- | --- | --- | --- |
| CCOC(=O)N1CCC2(CC(N3CCC(n4cccn4)CC3)C2)C1 (single isomer, unassigned) [1-33 Isomer 2, ethyl 2-[4-(1H-pyrazol-1-yl)piperidin-1-yl]-6-azaspira[3.4]octane-6-carboxylate] | > 20000 | 3.98 | 25.1 | – | – | – | – | – | – | – | – | Emax ([1]; read-out: % Emax cf. ACh, M3): 7%; Emax ([2]; read-out: % Emax cf. ACh, M4): 118%; reversal of scopolamine-induced amnesia ([3]; 3, 10 and 30 mg/kg po): reverse scopolamine-induced amnesia of the paradigm in a dose-dependent manner; ED50 ([3]; po, 90 minutes prior to training, scopolamine 1 mg/kg i.p. 6 hours following training, read-out: approximate ED50, reversal of scopolamine-induced amnesia): ~10 mg/kg; Emax ([4]; read-out: % Emax cf. ACh, M2): 49%; Emax ([5]; read-out: % Emax cf. ACh, M1): 11% |
| CCOC(=O)N1CCC2(CC(N3CCC(N4CCCCCC4C(=O)OC)CC3)C2)C1 (single isomer, unassigned) [5-2 Isomer 2, ethyl 2-{4-[2-(methoxycarbonyl)azepan-1-yl]piperidin-1-yl}-6-azaspiro[3.4]octane-6-carboxylate] | > 20000 | 50.1 | 1000 | – | – | – | – | – | – | – | – | Emax ([1]; read-out: % Emax cf. ACh, M3, CHO cells stably expressing human M3, relative to ACh): 4%; Emax ([2]; read-out: % Emax cf. ACh, M4, CHO cells stably expressing human M4, relative to ACh): 96%; EC50 [4]: > 20000 nM; Emax ([4]; read-out: % Emax cf. ACh, M2, CHO cells stably expressing human M2, relative to ACh): 5%; Emax ([5]; read-out: % Emax cf. ACh, M1, CHO cells stably expressing human M1, relative to ACh): 58% |
| CCOC(=O)N1CCC2(CC(N3CCC(C#N)(c4ccccn4)CC3)C2)C1 (single isomer, unassigned; isomer 1) [3-10 Isomer 1] | – | – | – | < 4.7 | 5 | 7.1 | 71 | < 4.7 | 3 | 5.9 | 42 | – |
| CCOC(=O)N1CCC2(CC(N3CCC(C#N)(c4ccccn4)CC3)C2)C1 (single isomer, unassigned; isomer 2) [3-10 Isomer 2] | – | – | – | < 4.7 | 0 | 8.9 | 103 | 7.0 | 96 | 8.0 | 90 | – |

— patent publication US9926297B2, “Bicyclic AZA compounds as muscarinic M1 receptor and/or M4 receptor agonists” (Heptares Therapeutics Limited, priority 2014, dated 2018)
